Data set [1] concerns Rattus norvegicus. The experiment in a line: Neuroprotective activity against middle cerebral artery occlusion induced cerebral ischemia reperfusion rat model assessed as increase in brain GSH level at 10 mg/kg, ip preincubated for 0.5 hrs followed by reperfusion and measured after 24 hrs. The class given is functional, organism-based.
Data set [2] relates to PC-12. The experiment in a line: Antioxidant activity in rat PC12 cells assessed as reduction in H2O2-induced ROS level at 20 to 100 uM preincubated for 2 hrs followed by H2O2 stimulation and measured after 2 hrs by DCFH-DA staining based fow cytometry. The class given is functional. Further details: scale not given: the % may be the effect or the level left. The settings on record: dose 20-100 µM.

Data set [3] relates to Rattus norvegicus. The experiment in a line: Neuroprotective activity against middle cerebral artery occlusion induced cerebral ischemia reperfusion rat model assessed as decrease in brain MDA level at 10 mg/kg, ip preincubated for 0.5 hrs followed by reperfusion and measured after 24 hrs. The class given is functional, organism-based.
Data set [4] concerns Rattus norvegicus. The experiment in a line: Neuroprotective activity against middle cerebral artery occlusion induced cerebral ischemia reperfusion rat model assessed as decrease in brain SOD level at 10 mg/kg, ip preincubated for 0.5 hrs followed by reperfusion and measured after 24 hrs. Type of data set: functional, organism-based.
For data set [5], the system named is Rattus norvegicus. The experiment in a line: Neuroprotective activity against middle cerebral artery occlusion induced cerebral ischemia reperfusion rat model assessed decrease in morphological changes in brain at 10 mg/kg, ip preincubated for 0.5 hrs followed by reperfusion and measured after 24 hrs by hematoxylin and eosin staining based microscopy. Type of data set: functional, organism-based.

Data set [6] can be described thus: n-Octanol-water partition coefficient, logP of the compound at 1 mg and measured after 2 hrs by HPLC analysis. Type of data set: physicochemical.
Data set [7] concerns Rattus norvegicus. The experiment in a line: Neuroprotective activity against middle cerebral artery occlusion induced cerebral ischemia reperfusion rat model assessed infarct volume volume at 10 mg/kg, ip preincubated for 0.5 hrs followed by reperfusion and measured after 24 hrs by TTC staining based assay relative to control. Type of data set: functional, organism-based.
For data set [8], the system named is PC-12. The experiment in a line: Neuroprotective activity in rat PC12 cells assessed as reduction in H2O2-induced ROS generation at 20 to 100 uM preincubated for 2 hrs followed by H2O2 stimulation and measured after 2 hrs by DCFH-DA staining based fluorescence microscopic analysis. Type of data set: functional, cell-based. The settings on record: dose 20-100 µM.

For data set [9], the system named is PC-12. The experiment in a line: Cytotoxicity against rat PC-12 cells assessed as inhibition of cell viability at 2.5 to 50 uM incubated for 24 hrs by MTT assay. The class given is toxicity, cell-based. The settings on record: pc-12, 24 h, dose 2.5-50 µM. On the technique in general: Tetrazolium dyes change colour on reduction, which living cells bring about.

Data set [10] has as its system Rattus norvegicus. The experiment in a line: Neuroprotective activity against middle cerebral artery occlusion induced cerebral ischemia reperfusion rat model assessed decrease in neuronal loss in brain at 10 mg/kg, ip preincubated for 0.5 hrs followed by reperfusion and measured after 24 hrs by hematoxylin and eosin staining based microscopy. The class given is functional, organism-based.

Data set [11] can be described thus: Stability of compound in phosphate buffer assessed as parent compound remaining after 48 hrs by HPLC analysis. The class given is physicochemical. The settings on record: read-out: Stability.
The nature of data set [12]: Cytotoxicity against mouse BEND3 cells assessed as inhibition of cell viability at 2.5 to 50 uM incubated for 24 hrs by MTT assay. The class given is toxicity, cell-based. The following applies: dose 2.5-50 µM, read-out: Activity.
The subject of data set [13] is PC-12. The experiment in a line: Neuroprotective activity against H2O2-induced cytotoxicity in rat PC12 cells assessed as increase in cell viability at 2.5 to 100 uM preincubated for 2 hrs followed by H2O2 stimulation and measured after 2 hrs by MTT assay. Type of data set: functional, cell-based. The following applies: dose 2.5-100 µM.
The nature of data set [14]: Cytotoxicity against mouse BEND3 cells assessed as inhibition of cell viability at 20 to 50 uM incubated for 24 hrs by MTT assay. Type of data set: toxicity, cell-based. The settings on record: bend3, 24 h, dose 20-50 µM.
The test system of data set [15] is PC-12. The experiment in a line: Cytotoxicity against rat PC-12 cells assessed as inhibition of cell viability at 20 to 50 uM incubated for 24 hrs by MTT assay. The settings on record: pc-12, 24 h, dose 20-50 µM. The class given is toxicity, cell-based.

SMILES strings stand for the structures. The source made the active and inactive calls. No cut-off for these calls is given here.

One may read the logP as a log measure of how a compound divides between an organic and an aqueous phase.

On to `O=c1c(O)c(-c2ccc(O)c(O)c2)oc2cc(OCc3cn(C[C@H]4O[C@@H](O)[C@H](O)[C@@H](O)[C@@H]4O)nn3)cc(O)c12`, for which the outcome in [1], in data set [3], in data set [4], in data set [5], in data set [7] and in data set [8] was Active. The outcome in data set [10] and in data set [13] was Active. In addition, the Activity was 15.2% in [2] and greater than 80% in [9]. Also, the logP at 2 h in data set [6] is -0.23. For the same molecule, in [11], the remaining at 48 h was found to be 73.2%. The inhibition at 24 h, up to 50 µM in [12] is greater than 80%.
With `O=c1c(O)c(-c2ccc(O)c(O)c2)oc2cc(O)cc(O)c12` [QUERCETIN], the result in [1], in data set [3], in [4], in data set [5], in data set [7] and in data set [8] was Active. Moreover, the result in data set [10] and in [13] was Active. Also, the Activity result in data set [14] is on record as “Toxic”; in [2], 21.56%; in data set [15], “Toxic”. In data set [6], this molecule returned a logP at 2 h of 1.38. Also, the remaining at 48 h in [11] is 11.2%.
As for `O=c1c(O)c(-c2ccc(O)c(OCc3cn(C[C@H]4O[C@@H](O)[C@H](O)[C@@H](O)[C@@H]4O)nn3)c2)oc2cc(OCc3cn(C[C@H]4O[C@@H](O)[C@H](O)[C@@H](O)[C@@H]4O)nn3)cc(O)c12`, the result in data set [1], in data set [3], in data set [4], in data set [5], in [7] and in data set [8] was Active. The outcome in data set [10] and in [13] was Active. The results for the Activity in data set [2] and in data set [9] were 5.06% and greater than 80%, respectively. The logP at 2 h in data set [6] was -1.12. Further, the remaining at 48 h in [11] came to 81.5%. Besides, the inhibition at 24 h, up to 50 µM in data set [12] was greater than 80%.
